Patent publication US20130109581A1, “POSITIVELY CHARGED SPECIES AS BINDING REAGENTS IN THE SEPARATION OF PROTEIN AGGREGATES FROM MONOMERS” (priority 2009, published 2013)
Several values for one entry are separate records, joined by “and”; a condition that tells them apart may be missing. Identical values can stand only once. Entries after “also recorded” stand apart in the source; their conditions may differ.

Key:
[1] = system: 263K prion infectivity; set-up: species or system Tg(SHaPrP) mice; settings: mouse, in vivo
[2] = target: T1, Aβ42 Globulomer (Homo sapiens, UniProt P05067); assay: Misfolded Protein Assay, LoD and capture in CSF: globulomer; type: binding; settings: for LoD: spiked into CSF
T1 construct: beta amyloid (1-42) was monomerized with incubation in hexafluoroisopropanol
Method: (§1) The Ab42 aggregates were prepared as previously described: fibrils were prepared per Stine et al (JBC 2003, 278, p11612), globulomers were prepared per Barghorn et al (J Neurology 2005 95 p834), ADDLs were prepared per Lambert et al (PNAS 1998, 95 p6448), and ASPDs were prepared per Noguchi et al (JBC 2009 284 p32895). Normal CSF was pooled from clinically characterized non-demented patient CSF samples. AD CSF was pooled from clinically-characterized AD patient samples. Alzheimer's Disease Brain Homogenate (ADBH) was prepared by sonication of clinically diagnosed AD patient brain samples in 0.2M.sucrose (1:10 w/v).
(§2) For the capture assay (Misfolded Protein Assay), aliquots of the beads (30 ul) were added to wells of a 96 well plate, followed by 125 ul of sample in 80:20 CSF:TBSTT. The plate was sealed and incubated for 1 h at 37 C with shaking. The plate was washed with TBST and the residual buffer removed. A denaturing solution (0.1 N NaOH) was added to each well and the plate heated to 80 C. for 30 min with shaking. After cooling the plate to RT, a neutralizing buffer (0.12 M NaH2PO3-0.4% TW20,) was added and the plate shaken briefly at RT. The assay was analyzed using the triplex Mesoscale Discovery ELISA kit for Aβ. The Aβ in the samples eluted from the beads were detected per the manufacturer's protocol.
(§3) For the Limit of Detection (LoD) studies, serial dilutions of each aggregate were spiked into CSF and were assayed per the protocol described above. The LoD was defined as 2× over background levels.
(§4) This pattern minors the capture selectivity observed when these species are tested with 3 ul of PSR1 beads and 1 ng/mL of aggregate.

[3] = target: PrP^Sc (Mesocricetus auratus, UniProt P04273)
Chain of PrP^Sc (P04273 23-231 limits assumed): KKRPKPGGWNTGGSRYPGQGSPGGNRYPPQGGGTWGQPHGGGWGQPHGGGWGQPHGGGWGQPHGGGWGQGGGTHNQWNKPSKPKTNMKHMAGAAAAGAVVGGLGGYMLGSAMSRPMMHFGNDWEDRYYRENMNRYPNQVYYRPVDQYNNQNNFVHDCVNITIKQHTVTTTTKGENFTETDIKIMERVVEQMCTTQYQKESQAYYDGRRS

[4] = target: T2, Aβ42 Fibrils (Homo sapiens, UniProt P05067); assay: Misfolded Protein Assay, LoD and capture in CSF: fibrils; type: binding; settings: for LoD: spiked into CSF
T2 construct: The Ab42 aggregates were prepared as previously described
Method: as §1, §2, §3, §4

[5] = target: T3, Aβ(1-42) aggregates (Homo sapiens, UniProt P05067); type: binding
T3 construct: For Aβ(1-42), 10 nL of 10% brain homogenate was added to each well; from tissue; host or cells: Alzheimer's disease patient brain homogenate

[6] = target: T4, E22K globulomer (beta amyloid 1-42, Italian mutation) (Homo sapiens, UniProt P05067, E693K); assay: NMPA capture of E22K globulomer; type: binding; settings: positively charged mutant; FIG. 10
T4 construct: Three beta amyloid 1-42 peptides were generated to test the role of E22; purchased Anaspec
Text: (§5) Three beta amyloid 1-42 peptides were generated to test the role of E22: a wild-type peptide, a mutant peptide containing Arctic mutation E22G with a neutral charge, and a mutant peptide containing Italian mutation E22K with a positive charge. Synthetic peptides were commercially available from Anaspec.
(§6) Mutant peptides were oligomerized according to the methods described in Example 3.

[7] = target: T5, E22G globulomer (beta amyloid 1-42, Arctic mutation) (Homo sapiens, UniProt P05067, E693G); assay: NMPA capture of E22G globulomer; type: binding; settings: neutrally charged mutant; FIG. 8
T5 construct: Three beta amyloid 1-42 peptides were generated to test the role of E22; purchased Anaspec
Text: as §5, §6
NMPA was used to evaluate the ability of PSR1 to capture the E22G globulomer. The methods used are described in Example 2.

[8] = system: tau aggregates; type: binding, human
[9] = target: T6, oligomeric beta amyloid 1-42 (globulomer) (Homo sapiens, UniProt P05067); assay: Misfolded Protein Assay: capture of globulomer spiked into CSF (Example 2); type: binding; settings: conjugated to cellulose membrane; loading approximately 100× higher than on beads
T6 construct: beta amyloid (1-42) was monomerized with incubation in hexafluoroisopropanol

[10] = target: T7, Aβ42 Monomer (Homo sapiens, UniProt P05067); assay: Misfolded Protein Assay, Limit of Detection in CSF: monomer; type: binding; settings: spiked into CSF; LoD = 2× over background
T7 construct: The Ab42 aggregates were prepared as previously described
Method: as §1
as §2, with “protocol. […]” for “protocol.”

[11] = target: alpha synuclein fibrils (Homo sapiens, UniProt P37840); assay: MPA of alpha-synuclein fibrils in CSF or plasma; type: binding
Method: Amylin fibrils were prepared as reported in J. Biological Chem. (1999) 274, No. 28, pp 19509-19512. To denature the fibrils, samples were treated with 5.4 M guanidine thiocyanate for 30 minutes at room temperature. The samples were then diluted to the indicated concentrations and alpha synuclein was detected by a sandwich ELISA (Invitrogen; catalog #KHB0061) according to the manufacturer's instructions.
The specificity of PSR1 beads for aggregated alpha synuclein was tested by incubating 3 ul PSR1 beads with fibrillar alpha-synuclein with or without a pretreatment with chemical denaturant (5.4 M guanidine thiocyanate for 30 minutes at room temperature). Alpha synuclein was diluted into 125 ul 80% CSF or plasma in TBSTT (50 mM Tris, 150 mM NaCl, 1% TritonX-100, 1% Tween20) at the indicated concentrations. Samples were incubated for 1 hour at 37 C and 550 rpm before washing with TBS 0.05% Tween20 buffer. Bound alpha synuclein was eluted from the beads with 4 ul 6 M guanidine thiocyanate (30 minutes at room temperature), diluted with 246 ul ELISA diluent buffer and then detected by sandwich ELISA (Invitrogen; catalog #KHB0061).

[12] = 3 ul of beads and 1 ng/mL of aggregate

With Nab-Nab-Nab-Nbn-Nab-Nbn [PSR1] the “125 μl pooled plasma corresponds to 30 μl of a dilution of 263 K hamster brain homogenate” value [1] was 10^−8 dilution of 263 K and 10^−7 dilution of 263 K, the “Attack rate (Clinical TSE/total inoculated)” value [1] was 100% (8/8) and 50% (2/4) and 100% (4/4) and 81% (13/16) and the “Mean incubation period (days)” value [1] was 74 ± 3 dpi and 76 ± 5 dpi and 94 ± 5 dpi. The “capture and transmission of prion infectivity” value [1] was “capture prion infectivity from prion-infected blood samples and transmit it with high efficiency to Tg(SHaPrP) mice”, the “incubation period (days)” value [1] was 56, 85 days and the mean incubation times [1] was 74-94 days post inoculation. For the same substance, the “capture of Globulomer” value [2, 12] was 1267, the LoD [2] was ~140 amol and the LoD ([2]; LoD = 2× over background) was ~75 pg/mL and 75 pg/mL. For the same substance, the “PrP^Sc capture signal” value [3] was “Signal was observed with the 100 or 300 ng/mL spike levels”, the “capture of Fibril” value [4, 12] was 3636 and the LoD [4] was <2 amol. The LoD ([4]; LoD = 2× over background) was ~50 pg/mL and 50 pg/mL, the “distinguishing control and AD brain homogenates, Abeta (1-42) detected” value [5] was “clearly distinguished between control and either vCJD or AD samples” and the “capture of E22K globulomer” value [6] was “captured efficiently”. The “capture of E22G globulomer” value [7] was “not captured”, the “distinguishing control and AD brain homogenates, Tau detected” value [8] was “clearly distinguished between control and either vCJD or AD samples” and the “total Tau signal, AD vs normal brain homogenate” value [8] was “higher signals in the AD samples relative to the normal brain homogenates; also recorded: highest signal”. The “ability to bind preferentially to oligomers in solution” value [9] was “continued to increase the ability of PSR1 to bind preferentially to oligomers in solution”, the LoD [10] was ~1000 pg/mL and the “binding to alpha synuclein fibrils compared to control bead” value ([11]; diluted into CSF or plasma, FIG. 50) was “specifically bound to alpha synuclein (aSyn) fibrils”. For the same substance, the “binding to alpha synuclein fibrils vs monomers” value ([11]; native vs denatured aSyn in CSF or plasma, FIG. 51) was “bound preferentially to alpha synuclein fibrils”.
